Reference: patent publication US20150224190A1, “Combination of a phosphoinositide 3-kinase inhibitor and an inhibitor of the IL-8/CXCR interaction” (priority 2012, published 2015)

Experiments:
IL-8 = IL-8 levels in dissected primary triple-negative breast tumors or plasma of mice (ELISA); assay type: in vivo, human; settings: day 3 of treatment with 30 mg/kg BEZ235 vs vehicle
Description: FIG. 5. BEZ235 treatment activates JAK2/STAT5 and IL-8 secretion in human primary triple-negative breast tumors Bar graphs showing IL-8 levels measured by ELISA in the dissected tumors from or in the plasma of mice at day 3 of treatment with 30 mg/kg BEZ235 or vehicle (VHC). Results represent means±SEM (n=3-4, *P<0.05). For assessing pJAK2 levels, an ELISA assay ([…]/1008, Invitrogen) was applied because of cross-reactivity of all pJAK2 antibodies tested. Interleukin-8 levels in RIPA lysates, cell culture supernatants and mouse tail vein blood plasma were measured by ELISA, as well (Biolegend). Cytokine arrays on cell culture supernatants and mouse tumor lysates were performed according the manufacture's protocol (R & D systems, Human and Mouse cytokine array panel A). […] Tumors were measured every 3 to 4 days with vernier calipers, and tumor volumes were calculated by the formula 0.5×(larger diameter)×(smaller diameter)^2. End point tumor sizes were analyzed for synergism using the formula AB/C<A/C×B/C, where C=tumor volume VHC, A=tumor volume compound 1, B=tumor volume compound 2, AB=tumor volume combination (Clarke, 1997).

JAK2/STAT5 = JAK2/STAT5 phosphorylation in vivo models; set-up: species or system mice; settings: after 8 hours of treatment
Description: Cells for Western Blotting and ELISA were lysed with RIPA buffer. […]
For assessing pJAK2 levels, an ELISA assay (Tyr1007/1008, Invitrogen) was applied because of cross-reactivity of all pJAK2 antibodies tested. Interleukin-8 levels in RIPA lysates, cell culture supernatants and mouse tail vein blood plasma were measured by ELISA, as well (Biolegend). […]
SCID/beige, SCID/NOD and Balb/c mice (Jackson Labs) were maintained under specific pathogen-free conditions and were used in compliance with protocols approved by the Institutional Animal Care and Use Committees of the FMI, which conform to institutional and national regulatory standards on experimental animal usage. […] Tumors were measured every 3 to 4 days with vernier calipers, and tumor volumes were calculated by the formula 0.5×(larger diameter)×(smaller diameter)^2. End point tumor sizes were analyzed for synergism using the formula AB/C<A/C×B/C, where C=tumor volume VHC, A=tumor volume compound 1, B=tumor volume compound 2, AB=tumor volume combination (Clarke, 1997). […]

Cn1c(=O)n(-c2ccc(C(C)(C)C#N)cc2)c2c3cc(-c4cnc5ccccc5c4)ccc3ncc21 [COMPOUND A, 2-methyl-2-[4-(3-methyl-2-oxo-8-quinolin-3-yl-2,3-dihydro-imidazo[4,5-c]quinolin-1-yl)-phenyl]-propionitrile]
IL-8 secretion (IL-8 levels in tumors or plasma) (IL-8): activates | pJAK2 (JAK2/STAT5): considerable upregulation | pSTAT5 (JAK2/STAT5): considerable upregulation
